Experimental data taken from patent US20220220448A1, “INDUCED HUMAN COLITIC ORGANOIDS” (The Cleveland Clinic Foundation, priority 2019, published 2022).

Legend:
[1] = tested on: iHNOs (non-IBD organoids); assay: Repertaxin treatment of iHNOs in vitro during development from spheroids to organoids (IF, IHC, H&E); type: cell-based, human
Description: (§1) FIGS. 6A-U: Repertaxin attenuates the progression of the colitic phenotype in iHUCOs in vitro. (A, B) Representative immunofluorescence co-localization expression of CXCR1 (red) and CXCL8 (green) expressed in epithelium and mesenchyme of iHNO and iHUCO in the absence (A) or presence of repertaxin (B). (C, D) Summarized percentages of cells positive for CXCR1, CXCL8 and both, in the epithelium and mesenchyme of non-IBD and UC iHCOs, after treatment with repertaxin (20 μm) compared to vehicle (Ctrl). (E) Representative H&E of non-IBD and UC organoids in Ctrl compared to repertaxin treated (F). (G, H) Organoid mean diameter and epithelial thickness after 21 days of treatment with repertaxin compared to control. […] (S, T) Quantification of the percentage of the cells in control vs. repertaxin-treated organoids, positive for RhoA in plasma membrane-only (Mem) and cytoplasm (Cyt). […] IHC Scale bar, 40 um. IF Scale bar, 25 um. N=3 each; except for barrier studies, N=1. ns: not significant, **(p<0.01), ***(p<0.001), ****(p<0.0001). The upregulation of the CXCL8 receptor pro-inflammatory interaction in iHUCOs (FIG. 5) led us to study the effect of repertaxin, a small molecule inhibitor of the CXCL8 receptor, on organoids development. In brief, we treated both UC and non-IBD organoids with repertaxin for 21 days, during their development from spheroids to organoids and compared their phenotypic characteristics to vehicle (Ctrl) organoids.

iHNOs = assay: Repertaxin in vivo: non-IBD spheroids in TS-HA hydrogel beads implanted subcutaneously in NSG mice
Description: (§2) FIGS. 7A-U: Repertaxin attenuates the progression of the colitic phenotype in iHUCOs in vivo. (A) Schematic representation of repertaxin study in vivo; spheroids encapsulated in TS-HA hydrogel beads were implanted subcutaneously in the dorsal flanks of immunocompromised NSG mice receiving daily injections of repertaxin vs. PBS (21 days). (B, C) Representative immunofluorescence dual-staining of CXCR1 (red) and CXCL8 (green) expressed in epithelium and mesenchyme of iHNO and iHUCO in Ctrl (B) or repertaxin-treated (C). (D, E) Summarized percentages of cells positive for CXCR1, CXCL8 and both, in the epithelium and mesenchyme of non-IBD and UC organoids, after treatment with repertaxin (20 mg/kg) compared to PBS (Ctrl). (F-G) Representative H&E of non-IBD and UC organoids harvested after 21 days for control (F) and repertaxin treatment (G). (H, I) Mean organoid diameter and epithelial thickness after 21 days of repertaxin treatment vs. Ctrl. […] Results reported for the plasma membrane only (Mem), and cytoplasm+nucleus (Cyt+Nuc) cellular compartments. (R, S) Representative immunohistochemistry of RhoA, highlighting the effect of repertaxin on the cellular localization of the protein in plasma membrane only (Mem), and cytoplasm (Cyt) compartments. (T, U) Summarized percentages of cells expressing RhoA in Ctrl vs. repertaxin-treated organoids for plasma membrane-only (Mem) and cytoplasm (Cyt). IHC Scale bar, 40 um. IF Scale bar, 25 um. N=3 each. ns=not significant, *(p<0.05), **(p<0.01), ***(p<0.001), ****(p<0.0001). […] To test the significance of our repertaxin observations in vivo, we studied the effect of repertaxin on the developmental progression of spheroids to organoids, implanted subcutaneously in the dorsal flank of NSG mice (FIG. 7A, STAR Methods). In brief, we encapsulated the spheroids in TS-HA hydrogel beads and implanted the beads subcutaneously. Mice were then treated daily for 21 days with either 20 mg/kg repertaxin or PBS (control). The rate of growth was measured twice per week with calipers, and the volume calculated (STAR Methods).

[2] = tested on: UC epithelial barrier (iHUCOs); assay: Epithelial barrier permeability by microinjection of 4 kD dextran, real-time, iHUCOs; type: cell-based, human; details: 4 kDa dextran, 15 hours, treated vs untreated
Description: (§3) FIGS. 6A-U: Repertaxin attenuates the progression of the colitic phenotype in iHUCOs in vitro. (A, B) Representative immunofluorescence co-localization expression of CXCR1 (red) and CXCL8 (green) expressed in epithelium and mesenchyme of iHNO and iHUCO in the absence (A) or presence of repertaxin (B). (C, D) Summarized percentages of cells positive for CXCR1, CXCL8 and both, in the epithelium and mesenchyme of non-IBD and UC iHCOs, after treatment with repertaxin (20 μm) compared to vehicle (Ctrl). (E) Representative H&E of non-IBD and UC organoids in Ctrl compared to repertaxin treated (F). (G, H) Organoid mean diameter and epithelial thickness after 21 days of treatment with repertaxin compared to control. […] (S, T) Quantification of the percentage of the cells in control vs. repertaxin-treated organoids, positive for RhoA in plasma membrane-only (Mem) and cytoplasm (Cyt). […] IHC Scale bar, 40 um. IF Scale bar, 25 um. N=3 each; except for barrier studies, N=1. ns: not significant, **(p<0.01), ***(p<0.001), ****(p<0.0001). Moreover, to functionally confirm the adherens vs. tight junction signature in UC compared to non-IBD organoids, we used the recently described microinjection technique by Hill et al. to measure and compare the epithelial barrier permeability for both UC and non-IBD organoids in real-time. […]

[3] = tested on: epithelial barrier of non-IBD organoids (iHNOs); assay: Epithelial barrier permeability by microinjection of 4 kD dextran, real-time, iHNOs; type: cell-based, human; details: 4 kDa dextran, 15 hours, treated vs untreated
Description: as §3

iHUCOs = assay: Repertaxin in vivo: UC spheroids in TS-HA hydrogel beads implanted subcutaneously in NSG mice
Description: as §2

iHUCOs (UC organoids) = assay: Repertaxin treatment of iHUCOs in vitro during development from spheroids to organoids (IF, IHC, H&E, in situ hybridization); type: cell-based, human
Description: as §1

[4] = iHNOs, IHC, repertaxin vs control
[5] = non-IBD organoids, 21 days repertaxin vs control
[6] = non-IBD organoids, IHC, repertaxin vs control
[7] = non-IBD organoids, repertaxin (20 μm), 21 days, vs control
[8] = non-IBD organoids, 20 mg/kg daily, 21 days, vs PBS
[9] = UC organoids, 20 mg/kg daily, 21 days, vs PBS
[10] = iHUCOs, 20 mg/kg daily, 21 days, vs PBS
[11] = iHUCOs, IHC, vs untreated control
[12] = UC organoids, IHC, repertaxin vs control
[13] = iHUCOs epithelium, IHC, repertaxin vs control
[14] = iHUCOs, 21 days repertaxin vs control
[15] = iHUCOs, repertaxin (20 μm), 21 days, vs control
[16] = iHUCOs, repertaxin (20 μm), 21 days, vs vehicle (Ctrl), average

SMILES: CC(C)Cc1ccc([C@@H](C)C(=O)NS(C)(=O)=O)cc1 [repertaxin]
- Ki67 expression in the epithelium (proliferation) [1, 4]: significantly lower expression
- RhoA expression [1, 4]: did not significantly affect
- Claudin-1 expression ([1]; iHNOs, IHC, treated vs control): no significant changes
- epithelial thickness [1, 5]: did not change
- organoid size [1, 5]: significantly smaller organoids
- cells with expression of E-cadherin limited to the plasma membrane [1, 6]: significantly more cells with limited expression
- cells with expression of β-catenin limited to the plasma membrane [1, 6]: significantly more cells with limited expression
- cytoplasmic and nuclear expression of E-cadherin [1, 6]: lower cytoplasmic and nuclear expression
- cytoplasmic and nuclear expression of β-catenin [1, 6]: lower cytoplasmic and nuclear expression
- CXCL8 expression [1, 7]: significantly less
- CXCR1 expression [1, 7]: significantly less
- epithelial thickness (iHNOs; iHNOs, 20 mg/kg daily, 21 days, vs PBS): no significant effect
- E-cadherin expression pattern (iHNOs; iHNOs, IHC, vs control): higher rate of expression in membrane
- RhoA expression (iHNOs; iHNOs, IHC, vs control): did not have a significant effect
- β-catenin expression pattern (iHNOs; iHNOs, IHC, vs control): higher rate of expression in membrane
- Ki67 proliferation rate in the epithelium (iHNOs; non-IBD epithelium, 20 mg/kg daily, 21 days, vs PBS): did not have a significant effect
- CXCL8 expression (iHNOs; [8]): less
- CXCR1 expression (iHNOs; [8]): less
- Claudin-1 expression (iHNOs; non-IBD organoids, IHC, vs control): did not change
- rate of permeability of the epithelial barrier (dye release) [2]: significantly decreased
- real-time measurement timepoints with significantly decreased permeability [2]: 50%
- epithelial permeability (dye release) [3]: did not have a significant effect
- overall calculated volume of implanted beads (iHUCOs; 20 mg/kg repertaxin daily for 21 days vs PBS, groups (UC and non-IBD) not told apart): significantly greater in the PBS than in the repertaxin-treated groups
- CXCL8 expression (iHUCOs; [9]): less
- CXCR1 expression (iHUCOs; [9]): less
- Ki67 proliferation rate in the epithelium (iHUCOs; [10]): significantly reduced
- epithelial thickness (iHUCOs; [10]): significant less thick epithelium
- Claudin-1 expression (iHUCOs; iHUCOs, IHC, vs control): significantly increased
- cytoplasmic expression of RhoA (iHUCOs; iHUCOs, IHC, vs control): strongly decreased
- membranous expression of RhoA (iHUCOs; iHUCOs, IHC, vs control): strongly decreased
- cytoplasmic and nuclear expression of E-cadherin (iHUCOs; [11]): greater cytoplasmic and nuclear expression
- cytoplasmic and nuclear expression of β-catenin (iHUCOs; [11]): greater cytoplasmic and nuclear expression
- cytoplasmic and nuclear expression of E-cadherin (iHUCOs (UC organoids); [12]): greater
- cytoplasmic and nuclear expression of β-catenin (iHUCOs (UC organoids); [12]): greater
- RhoA expression in cytoplasm (iHUCOs (UC organoids); [13]): less RhoA expression
- less RhoA expression on the membrane (activated RhoA) (iHUCOs (UC organoids); [13]): ~5 fold
- epithelial thickness (iHUCOs (UC organoids); [14]): less thick epithelium
- organoid size (iHUCOs (UC organoids); [14]): significantly lower size
- Claudin-1 expression (iHUCOs (UC organoids); iHUCOs, IHC, repertaxin vs control): significantly more expression
- CXCL8 expression (iHUCOs (UC organoids); [15]): significantly lower than control
- percentage of co-expression of CXCL8/CXCR1 (iHUCOs (UC organoids); [15]): significantly lower than control
- lower expression of CXCR1 in the epithelium (iHUCOs (UC organoids); [16]): 7 fold
- lower expression of CXCR1 in the mesenchyme (iHUCOs (UC organoids); [16]): 9 fold
- expression pattern of p-YAP1 (iHUCOs (UC organoids); treated iHUCOs, IHC): more closely resembled the expression patterns in iHNOs
- expression pattern of LGR5 (iHUCOs (UC organoids); treated iHUCOs, in situ hybridization): more closely resembled the expression patterns in iHNOs
